The results in this text go back to ChEMBL document CHEMBL3352595, “Anti-inflammatory secoiridoid glycosides from Gentianella azurea” (Bioorg Med Chem Lett, 2014).

The test system of the experiment is RAW264.7. As to the kind of experiment: Anti-inflammatory activity in mouse RAW264.7 cells assessed as inhibition of LPS-induced nitric oxide production. The class given is functional, cell-based.
By IC50 is commonly meant the concentration at which inhibition is half-maximal. As for `C=C[C@H]1[C@H](O[C@@H]2O[C@H](COC(=O)c3cccc(O)c3O[C@@H]3O[C@H](CO)[C@@H](O)[C@H](O)[C@H]3O)[C@@H](O)[C@H](O)[C@H]2OC(=O)c2cccc(O)c2O)OC=C2C(=O)OCC[C@H]21`, the IC50 was more than 200 µM.

For `C=C[C@H]1[C@H](O[C@@H]2O[C@H](COC(C)=O)[C@@H](OC(=O)c3cccc(O)c3O[C@@H]3O[C@H](CO)[C@@H](O)[C@H](O)[C@H]3O)[C@H](OC(C)=O)[C@H]2OC(=O)c2cccc(O)c2O)OC=C2C(=O)OCC[C@H]21`, the IC50 is 5.18 µM.

As to `C=C[C@H]1[C@H](O[C@@H]2O[C@H](COC(=O)c3cccc(O)c3O[C@@H]3O[C@H](CO)[C@@H](O)[C@H](O)[C@H]3O)[C@@H](O)[C@H](OC(C)=O)[C@H]2OC(=O)c2cccc(O)c2O)OC=C2C(=O)OCC[C@H]21`, the IC50 is more than 200 µM. Turning to `C=C[C@H]1[C@H](O[C@@H]2O[C@H](COC(C)=O)[C@@H](OC(C)=O)[C@H](O)[C@H]2OC(=O)c2cccc(O)c2O)OC=C2C(=O)OCC[C@H]21`, the IC50 is 0.69 µM. Regarding `C=C[C@H]1[C@H](O[C@@H]2O[C@H](CO)[C@@H](O)[C@H](O)[C@H]2OC(=O)/C=C/c2ccc(O)cc2)OC=C2C(=O)OCC[C@]21O`, the IC50 was more than 200 µM. Take `C=C[C@H]1[C@H](O[C@@H]2O[C@H](CO)[C@@H](OC(=O)c3cccc(O)c3O[C@@H]3O[C@H](CO)[C@@H](O)[C@H](O)[C@H]3O)[C@H](O)[C@H]2O)OC=C2C(=O)OCC[C@H]21`: the IC50 is more than 200 µM. Then `C=C[C@H]1[C@H](O[C@@H]2O[C@H](COC(C)=O)[C@@H](OC(C)=O)[C@H](O)[C@H]2OC(C)=O)OC=C2C(=O)OCC[C@H]21`, with 52.8 µM; and `C=C[C@H]1[C@H](O[C@@H]2O[C@H](COC(=O)c3cccc(O)c3O[C@@H]3O[C@H](CO)[C@@H](O)[C@H](O)[C@H]3O)[C@@H](O)[C@H](O)[C@H]2O)OC=C2C(=O)OCC[C@H]21`, with more than 200 µM; and `C=C[C@H]1[C@H](O[C@@H]2O[C@H](COC(C)=O)[C@@H](O)[C@H](OC(C)=O)[C@H]2OC(=O)c2cccc(O)c2O)OC=C2C(=O)OCC[C@H]21`, with more than 200 µM. Regarding `C=C[C@H]1[C@H](O[C@@H]2O[C@H](COC(C)=O)[C@@H](OC(C)=O)[C@H](OC(C)=O)[C@H]2O)OC=C2C(=O)OCC[C@H]21`, the IC50 is more than 200 µM.

As to `C=C[C@H]1[C@H](O[C@@H]2O[C@H](COC(C)=O)[C@@H](O)[C@H](OC(C)=O)[C@H]2OC(C)=O)OC=C2C(=O)OCC[C@H]21`, the half-maximal inhibitory concentration (IC50) was more than 200 µM.
